Test results published in PMC7397249, “Properly Substituted Cyclic Bis-(2-bromobenzylidene) Compounds Behaved as Dual p300/CARM1 Inhibitors and Induced Apoptosis in Cancer Cells” (Molecules, 2020).

Columns and labels:
[1] = system: EZH2; experiment: Western blot of H3K27me3 (EZH2) in MCF-7 cells; type: cell-based, human; conditions: 5 μM, 30 h
Procedure: In MCF-7 cells, the levels of acetyl-H3, acetyl-H4, H3K27me3, and H3R17me2 were detected by western blot analyses as functional tests for p300 (acH3 and acH4), EZH2 (H3K27me3) and CARM1 (H3R17me2) inhibition in cells, respectively (Figure 5).
The procedures were performed as described in [30, 31]. Primary antibodies used were: Ac-H3 (Millipore, Milan, Italy); Ac-H4 (Millipore, Milan, Italy); Ac-H3K9-14 (Diagenode, Ougrée, Belgium); Ac-α-tubulin (Sigma-Aldrich), H3K27me3 (Diagenode); H3R17me2 (Diagenode); EZH2 (Abcam, Cambridge, UK). H3 (Sigma-Aldrich), H4 (Abcam), GAPDH (Sigma) and ERKs (Santa Cruz, Biotechnology, TX, USA) were used to normalize the total protein extracts (see also Supplementary Material).

[2] = biological target: PRC2/EZH2 (Homo sapiens, UniProt Q15910); experiment: EZH2/PRC2 assay (core histone, 3H-SAM); type: biochemical; conditions: 10-dose, duplicate, from 400 μM
Procedure: (§1) The newly synthesized compounds 4a–n were tested to determine their effects against acetylation and methylation epigenetic targets. First, 4a–n were screened in vitro against the two HAT enzymes p300 and PCAF. […] To determine the activity against SIRT1 and -2, 4a–n were tested starting from 200 μM solutions using a modified Fluor de Lys fluorescence-based assay with amino acids 379–382 (Arg-His-Lys-Lys(Ac)) of human p53 conjugated with aminomethylcoumarin as substrate and NAD^+ as co-substrate. […] Furthermore, 4a–n were tested against a human five-membered Polycomb repressive complex 2 (PRC2) containing EZH2, embryonic ectoderm development (EED), suppressor of zeste 12 (SUZ12), RbAp48, and adipocyte enhancer-binding protein (AEBP2), to assess their capability to inhibit the catalytic unit EZH2.
The EZH2 substrate (0.05 mg/mL core histone) was added in the freshly prepared reaction buffer (50 mM Tris-HCl (pH 8.0), 50 mM NaCl, 1 mM EDTA, 1 mM DTT, 1 mM PMSF, 1% DMSO). The PRC2 complex (complex of human EZH2, human EED, human SUZ12, human AEBP2, and human RbAp48) was delivered into the substrate solution and the mixture was mixed gently. Afterwards, the tested compounds dissolved in DMSO were delivered into the enzyme/substrate reaction mixture by using Acoustic Technology (Echo 550, LabCyte Inc. Sunnyvale, CA, USA) in nanoliter range, and ^3H-SAM was added into the reaction mixture to initiate the reaction. The reaction mixture was incubated for 1 h at 30 °C and then it was delivered to filter-paper for detection. The data were analyzed using Excel and GraphPad Prism software for IC50 curve fits. The experiments were performed in duplicate.

[3] = system: NB4 cells; experiment: Cell cycle and apoptosis (sub-G1) analysis by FACS in NB4 cells; type: cell-based, human; conditions: 5 μM, 30 h
Procedure: Compounds 4a–n were tested at 5 μM for 30 h in NB4 […] and U937 AML cells among hematological cancers, and in MCF-7 breast cancer and SH-SY5Y neuroblastoma cells among solid cancers, to determine their effects in cell cycle and apoptosis induction.
In the same cell lines, the induction of apoptosis has been evaluated through the percentage of the sub-G1 peaks.
For colorimetric exclusion, the cells (2 × 10^5 cells/mL) were plated in multiwells in triplicate. After stimulations at different times and concentrations, cells were diluted in the ratio 1:1 in Trypan Blue (Sigma) and counted with an optical microscope. For cell cycle analyses, cells were plated (2 × 10^5 cells/mL) and were harvested, centrifuged at 1200 rpm for 5 min and resuspended in 500 μL of a hypotonic solution containing 1× PBS, Sodium Citrate 0.1%, 0.1% NP-40, RNAase A and […] Propidium Iodide (PI). After 30 min at room temperature (RT) in the dark, samples were acquired by FACS-Calibur (BD Bioscences, San Jose, CA, USA) using CellQuest software (BD Biosciences). The percentage in different phases of the cell cycle was determined by ModFit LT V3 software (Verity). All experiments were performed in triplicate. Cell death was measured as percentage of cells in sub-G1 phase as in [30].

[4] = biological target: T1, SIRT1 (Homo sapiens, UniProt Q96EB6); experiment: Modified Fluor de Lys fluorescence-based assay, SIRT1; type: biochemical; conditions: from 200 μM; p53 379-382 AMC substrate, NAD+
T1 construct: host or cells: E. coli
Procedure: as §1
The SIRT inhibition assay was performed using human recombinant SIRT1 and SIRT2 produced in E. coli. Compounds were tested using a modified Fluor de Lys fluorescence-based assay kit based on the method described in the BioMol product sheet (AK-555, AK-556, Milan, Italy). […] The second stage is initiated by the addition of the Developer II (KI176), including nicotinamide (NAM), nicotinamide that stops the SIRT1/2 activity, and the fluorescent signal is produced. The fluorescence was measured on a fluorometric reader (Infinite 200 TECAN, Männedorf, Switzerland) with excitation set at 360 nm and emission detection set at 460 nm.

[5] = biological target: T2, p300 (Homo sapiens, UniProt Q09472); experiment: HotSpot HAT activity assay, p300; type: biochemical; conditions: 10-dose, triplicate, from 200 μM; histone H3, [acetyl-3H]-acetyl-CoA
T2 construct: p300 (aa 1284–1673, 30 nM); purchased Reaction Biology Corporation
T2 sequence (Q09472 1284-1673): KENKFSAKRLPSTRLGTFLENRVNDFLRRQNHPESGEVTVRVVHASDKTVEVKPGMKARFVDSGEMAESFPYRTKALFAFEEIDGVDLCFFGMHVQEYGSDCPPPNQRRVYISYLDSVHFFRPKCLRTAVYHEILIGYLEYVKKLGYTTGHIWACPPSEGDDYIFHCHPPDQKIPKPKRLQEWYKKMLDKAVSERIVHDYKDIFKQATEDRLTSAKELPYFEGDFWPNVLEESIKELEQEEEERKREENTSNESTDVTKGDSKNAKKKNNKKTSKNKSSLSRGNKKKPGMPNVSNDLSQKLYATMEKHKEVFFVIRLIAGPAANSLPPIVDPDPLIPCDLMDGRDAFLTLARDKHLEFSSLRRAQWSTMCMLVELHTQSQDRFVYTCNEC
Procedure: as §1
The effect of tested derivatives on the catalytic activity of p300 and PCAF was determined in a HotSpot HAT activity assay by Reaction Biology Corporation (Malvern, PA, USA) according to the company’s standard operating procedure. In brief, the recombinant catalytic domains of PCAF (aa 492–658, 250 nM) or p300 (aa 1284–1673, 30 nM) were incubated with histone H3 as substrate (5 µM) and [Acetyl-^3H]-Acetyl Coenzyme A (3 µM) as an acetyl donor in reaction buffer (50 mM Tris-HCl (pH 8.0), 50 mM NaCl, 0.1 mM EDTA, 1 mM DTT, 1 mM PMSF, 1% DMSO) for 1 h at 30 °C in the presence or absence of a dose titration of the compounds. The reaction mixture was delivered to filter-paper for detection. IC50 values were analyzed using Excel and GraphPad Prism 6.0 software (GraphPad Software Inc., San Diego, CA, USA). The experiments for p300 were performed in triplicate.

T1 sequence (Q96EB6 whole entry): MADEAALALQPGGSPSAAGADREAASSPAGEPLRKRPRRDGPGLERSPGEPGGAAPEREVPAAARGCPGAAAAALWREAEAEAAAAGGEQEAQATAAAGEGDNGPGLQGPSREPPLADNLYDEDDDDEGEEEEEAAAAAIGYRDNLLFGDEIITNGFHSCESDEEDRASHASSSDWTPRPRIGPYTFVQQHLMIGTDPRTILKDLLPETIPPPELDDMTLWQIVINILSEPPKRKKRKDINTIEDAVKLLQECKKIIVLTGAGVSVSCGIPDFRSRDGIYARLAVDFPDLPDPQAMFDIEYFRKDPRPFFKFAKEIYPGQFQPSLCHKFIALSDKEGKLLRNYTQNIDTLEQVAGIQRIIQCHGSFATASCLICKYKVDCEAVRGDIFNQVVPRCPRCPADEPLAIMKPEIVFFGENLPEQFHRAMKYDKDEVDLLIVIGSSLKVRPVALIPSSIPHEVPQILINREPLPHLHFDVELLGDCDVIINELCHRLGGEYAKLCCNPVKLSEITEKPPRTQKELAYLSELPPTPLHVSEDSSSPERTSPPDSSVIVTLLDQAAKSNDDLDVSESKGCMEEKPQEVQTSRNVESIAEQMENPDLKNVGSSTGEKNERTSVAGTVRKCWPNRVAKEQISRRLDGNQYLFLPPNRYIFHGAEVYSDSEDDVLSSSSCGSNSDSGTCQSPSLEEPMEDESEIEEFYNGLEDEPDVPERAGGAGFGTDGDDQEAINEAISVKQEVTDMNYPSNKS
Chain of PRC2/EZH2 (Q15022 whole entry, the tested form may be a part): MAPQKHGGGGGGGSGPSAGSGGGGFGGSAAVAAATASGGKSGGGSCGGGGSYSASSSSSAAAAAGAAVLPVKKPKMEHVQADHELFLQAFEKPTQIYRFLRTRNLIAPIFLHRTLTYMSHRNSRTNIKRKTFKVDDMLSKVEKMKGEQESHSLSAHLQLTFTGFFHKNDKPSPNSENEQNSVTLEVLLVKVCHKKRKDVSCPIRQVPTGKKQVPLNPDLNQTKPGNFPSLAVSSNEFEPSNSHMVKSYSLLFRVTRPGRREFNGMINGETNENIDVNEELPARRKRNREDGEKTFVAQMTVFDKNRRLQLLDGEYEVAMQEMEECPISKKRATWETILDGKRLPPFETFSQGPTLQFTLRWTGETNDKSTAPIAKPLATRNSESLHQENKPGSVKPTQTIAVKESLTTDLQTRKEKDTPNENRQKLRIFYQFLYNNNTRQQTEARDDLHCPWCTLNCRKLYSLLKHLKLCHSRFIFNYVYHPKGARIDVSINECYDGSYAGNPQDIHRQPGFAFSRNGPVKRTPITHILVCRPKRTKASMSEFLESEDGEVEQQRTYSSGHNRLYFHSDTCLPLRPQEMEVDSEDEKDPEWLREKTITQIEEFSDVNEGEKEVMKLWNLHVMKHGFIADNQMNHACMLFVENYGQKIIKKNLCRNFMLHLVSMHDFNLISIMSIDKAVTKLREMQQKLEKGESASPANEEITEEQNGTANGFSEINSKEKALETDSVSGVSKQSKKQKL
Chain of PRC2/EZH2 (Q09028 whole entry, further chain, the tested form may be a part): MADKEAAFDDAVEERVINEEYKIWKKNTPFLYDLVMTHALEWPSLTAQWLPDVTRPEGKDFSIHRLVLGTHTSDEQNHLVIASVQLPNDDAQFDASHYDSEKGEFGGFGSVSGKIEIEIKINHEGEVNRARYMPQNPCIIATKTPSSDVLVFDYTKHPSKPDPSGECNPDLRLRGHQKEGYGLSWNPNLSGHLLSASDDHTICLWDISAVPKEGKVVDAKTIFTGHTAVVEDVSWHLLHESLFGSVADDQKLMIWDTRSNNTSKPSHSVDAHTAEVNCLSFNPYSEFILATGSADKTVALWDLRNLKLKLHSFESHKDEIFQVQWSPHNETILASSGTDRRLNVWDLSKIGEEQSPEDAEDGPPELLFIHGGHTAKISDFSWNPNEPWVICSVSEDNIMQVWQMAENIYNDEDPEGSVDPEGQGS
Chain of PRC2/EZH2 (Q6ZN18 whole entry, further chain, the tested form may be a part): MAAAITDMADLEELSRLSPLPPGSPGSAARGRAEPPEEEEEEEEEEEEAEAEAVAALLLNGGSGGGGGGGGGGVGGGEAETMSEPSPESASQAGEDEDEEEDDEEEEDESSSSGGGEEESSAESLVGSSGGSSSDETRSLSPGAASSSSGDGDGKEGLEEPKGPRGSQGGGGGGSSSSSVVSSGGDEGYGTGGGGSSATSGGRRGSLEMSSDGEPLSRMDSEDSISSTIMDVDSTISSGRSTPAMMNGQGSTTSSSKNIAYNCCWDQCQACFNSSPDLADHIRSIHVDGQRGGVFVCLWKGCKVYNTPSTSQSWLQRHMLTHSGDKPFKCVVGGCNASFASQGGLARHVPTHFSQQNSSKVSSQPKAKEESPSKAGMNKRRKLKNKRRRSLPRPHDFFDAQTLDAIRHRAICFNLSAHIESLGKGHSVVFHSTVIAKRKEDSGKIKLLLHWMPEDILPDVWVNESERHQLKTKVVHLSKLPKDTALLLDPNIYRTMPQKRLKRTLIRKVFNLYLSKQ
Chain of PRC2/EZH2 (Q15910 whole entry, the tested form may be a part): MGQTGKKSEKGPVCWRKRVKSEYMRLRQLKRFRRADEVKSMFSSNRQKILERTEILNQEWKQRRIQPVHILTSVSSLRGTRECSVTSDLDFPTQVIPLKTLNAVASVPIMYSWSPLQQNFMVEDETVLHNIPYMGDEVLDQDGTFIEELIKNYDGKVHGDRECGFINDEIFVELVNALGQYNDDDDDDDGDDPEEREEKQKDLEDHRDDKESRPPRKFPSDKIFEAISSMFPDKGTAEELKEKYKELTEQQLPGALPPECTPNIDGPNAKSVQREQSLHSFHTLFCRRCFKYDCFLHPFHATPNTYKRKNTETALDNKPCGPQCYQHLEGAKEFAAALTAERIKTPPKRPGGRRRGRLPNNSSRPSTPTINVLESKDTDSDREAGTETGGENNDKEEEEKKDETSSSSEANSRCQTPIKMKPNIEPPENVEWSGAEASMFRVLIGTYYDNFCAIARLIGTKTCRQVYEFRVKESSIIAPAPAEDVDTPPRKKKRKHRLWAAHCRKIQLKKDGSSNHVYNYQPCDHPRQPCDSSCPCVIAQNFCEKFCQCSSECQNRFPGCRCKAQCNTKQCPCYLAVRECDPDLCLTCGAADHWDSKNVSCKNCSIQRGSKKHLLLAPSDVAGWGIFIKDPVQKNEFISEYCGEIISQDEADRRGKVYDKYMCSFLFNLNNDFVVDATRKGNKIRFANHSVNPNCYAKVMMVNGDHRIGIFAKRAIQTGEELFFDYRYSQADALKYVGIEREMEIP
Chain of PRC2/EZH2 (O75530 whole entry, further chain, the tested form may be a part): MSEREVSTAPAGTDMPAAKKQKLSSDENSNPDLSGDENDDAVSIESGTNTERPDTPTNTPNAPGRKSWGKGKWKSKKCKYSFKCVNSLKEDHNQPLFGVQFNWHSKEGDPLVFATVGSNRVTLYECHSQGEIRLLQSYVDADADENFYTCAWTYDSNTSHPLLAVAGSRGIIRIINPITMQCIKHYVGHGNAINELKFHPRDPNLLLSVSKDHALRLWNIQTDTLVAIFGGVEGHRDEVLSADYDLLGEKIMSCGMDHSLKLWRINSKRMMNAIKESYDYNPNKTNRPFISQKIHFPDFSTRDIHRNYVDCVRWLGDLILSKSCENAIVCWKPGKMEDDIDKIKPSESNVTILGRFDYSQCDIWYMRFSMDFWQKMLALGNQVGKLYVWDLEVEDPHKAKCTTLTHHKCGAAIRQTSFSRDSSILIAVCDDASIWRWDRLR

O=C1/C(=C/c2ccccc2Br)CN(Cc2ccccc2)C/C1=C\c1ccccc1Br [Compound 4e, 1-benzyl-3,5-bis((E)-2-bromobenzylidene)piperidin-4-one]
levels of H3K27me3 [1]: reduction of the H3K27me3 levels
IC50 [2]: 44.2 ± 0.2 µM
induction of apoptosis, % sub-G1 peaks [3]: 30 to 40%
IC50 [4]: > 200 µM
IC50 [5]: 2.19 ± 0.77 µM

O=C1/C(=C/c2ccccc2Br)CN(CCc2ccccc2)C/C1=C\c1ccccc1Br [Compound 4f, 3,5-Bis((E)-2-bromobenzylidene)-1-phenethylpiperidin-4-one]
IC50 [4]: > 200 µM
IC50 [5]: 30.2 ± 2.71 µM

O=C1/C(=C/c2ccccc2Br)CN(CCCc2ccccc2)C/C1=C\c1ccccc1Br [Compound 4g, 3,5-Bis((E)-2-bromobenzylidene)-1-(3-phenylpropyl)piperidin-4-one]
IC50 [4]: > 200 µM
IC50 [5]: 40.7 ± 2.39 µM

O=C1/C(=C/c2ccccc2Br)CN(CC(=O)c2ccccc2)C/C1=C\c1ccccc1Br [Compound 4h, 3,5-Bis((E)-2-bromobenzylidene)-1-(2-oxo-2-phenylethyl)piperidin-4-one]
levels of H3K27me3 [1]: reduction of the H3K27me3 levels
IC50 [2]: 46 ± 8.1 µM
induction of apoptosis, % sub-G1 peaks [3]: 30 to 40%
IC50 [4]: > 200 µM
IC50 [5]: 1.03 ± 0.22 µM

O=C1/C(=C/c2ccccc2Br)CN(CCCC(=O)c2ccccc2)C/C1=C\c1ccccc1Br [Compound 4j, 3,5-Bis((E)-2-bromobenzylidene)-1-(4-oxo-4-phenylbutyl)piperidin-4-one]
levels of H3K27me3 [1]: reduction of the H3K27me3 levels
IC50 [2]: 68.5 ± 6.2 µM
IC50 [4]: > 200 µM
IC50 [5]: 2.13 ± 1.35 µM

O=C1/C(=C/c2ccccc2Br)CN(C(=O)c2ccccc2)C/C1=C\c1ccccc1Br [Compound 4k, 1-Benzoyl-3,5-bis((E)-2-bromobenzylidene)piperidin-4-one]
IC50 [2]: 40.7 ± 15.3 µM
induction of apoptosis, % sub-G1 peaks [3]: 30 to 40%
IC50 [4]: > 200 µM
IC50 [5]: 2.09 ± 0.79 µM

O=C1/C(=C/c2ccccc2Br)CN(C(=O)Cc2ccccc2)C/C1=C\c1ccccc1Br [Compound 4l, 3,5-Bis((E)-2-bromobenzylidene)-1-(2-phenylacetyl)piperidin-4-one]
IC50 [2]: 15.2 ± 2.2 µM
induction of apoptosis, % sub-G1 peaks [3]: 67%
IC50 [4]: > 200 µM
IC50 [5]: 0.45 ± 0.03 µM

O=C1/C(=C/c2ccccc2Br)CN(C(=O)CCc2ccccc2)C/C1=C\c1ccccc1Br [Compound 4m, 3,5-Bis((E)-2-bromobenzylidene)-1-(3-phenylpropanoyl)piperidin-4-one]
levels of H3K27me3 [1]: reduction of the H3K27me3 levels
IC50 [2]: 11.3 ± 0.08 µM
induction of apoptosis, % sub-G1 peaks [3]: 56%
IC50 [4]: > 200 µM
IC50 [5]: 0.46 ± 0.1 µM

O=C1/C(=C/c2ccccc2Br)CN(C(=O)C=Cc2ccccc2)C/C1=C\c1ccccc1Br [Compound 4n, 3,5-Bis((E)-2-bromobenzylidene)-1-cinnamoylpiperidin-4-one]
levels of H3K27me3 [1]: reduction of the H3K27me3 levels
IC50 [2]: 13.9 ± 1.8 µM
IC50 [4]: > 200 µM
IC50 [5]: 1.23 ± 0.29 µM
